Data reported in PMC9578143, “Small-Molecule Ebselen Binds to YTHDF Proteins Interfering with the Recognition of N^6-Methyladenosine-Modified RNAs” (ACS Pharmacology & Translational Science, 2022).
Several values for one entry are separate records, joined by “and”; a condition that tells them apart may be missing. Identical values can stand only once. Entries after “also recorded” stand apart in the source; their conditions may differ. Like-named read-outs stand apart in the source and are kept apart here.

Experiments:
YTHDF1 domain = molecular target: T1, YTHDF1 domain (Homo sapiens, UniProt Q9BYJ9); experiment: High-throughput screen, tryptophan quenching, Z-score; format: binding; details: 5 μM protein, compounds at 10 μM
T1 construct: The human YTHDF1 YTH domain (amino acids 365–554, PDB: 4RCJ); host or cells: E. coli BL21(DE3)
T1 sequence (Q9BYJ9 365-554): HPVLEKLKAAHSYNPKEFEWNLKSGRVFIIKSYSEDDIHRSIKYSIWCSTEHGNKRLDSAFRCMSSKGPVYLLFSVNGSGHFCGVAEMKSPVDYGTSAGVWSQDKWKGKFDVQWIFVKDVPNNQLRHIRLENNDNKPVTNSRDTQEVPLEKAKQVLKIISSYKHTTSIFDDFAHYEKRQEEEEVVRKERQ
Description: A Z factor of 0.53 was obtained. The high-throughput screen was performed by using an automatic liquid handling (Freedom EVO, Tecan), filling black 384-well plates with 15 μL of 5 μM protein in 20 mM Tris (pH 7.5), 150 mM NaCl, and 10% glycerol, and then by adding the library of compounds at a final concentration of 10 μM. Fluorescence was measured immediately after compound addition. The library used was the Spectrum Collection (Microsource Discovery System, Inc.), composed of 2560 compounds, of whom 60% are clinically used drugs, 25% natural products, and 15% other bioactive molecules. The Z-score was calculated as (X – μp)/σp, where X is the fluorescence intensity of the protein. Candidate molecules were considered all of the ones that were under the threshold of Z = −3, while all of the ones over that value were discarded.

YTHDF1 YTH domain [1] = molecular target: T2, YTHDF1 YTH domain (Homo sapiens, UniProt Q9BYJ9); experiment: Tryptophan fluorescence quenching assay; format: binding
T2 construct: The human YTHDF1 YTH domain (amino acids 365–554, PDB: 4RCJ); host or cells: E. coli BL21(DE3)
T2 sequence (Q9BYJ9 365-554): T1 sequence (Q9BYJ9 365-554)
Description: Fluorescence was measured using a Tecan Infinite 200 Microplate reader (Tecan Group Ltd.), setting the […] wavelength at 288 nm and collecting the emission data at 330 nm.

YTHDF1 YTH domain [2] = molecular target: T3, YTHDF1 YTH domain (human, UniProt Q9BYJ9 365-554); experiment: dynamic mass redistribution; details: EC50; immobilized protein; m6A; Fluorescence: 20 mM Hepes pH 7.5, 150 mM NaCl, 10% glycerol; REMSA: 20 mM Hepes pH 7.5, 50 mM KCl, BSA, 0.25% glycerol, gel at 4 C; AlphaScreen: 25 mM Hepes pH …
T3 sequence: T1 sequence (Q9BYJ9 365-554)

[3] = molecular target: T4, YTH domain of YTHDF1 / biotinylated RNA probe 5′-Bi-CCGAm6ACUGUC-3′ (Homo sapiens, UniProt Q9BYJ9); experiment: AlphaScreen competitive assay, saturation binding; details: for Disruption of the YTH/RNA interaction (AlphaScreen, in words): YTHDF1 YTH domain
T4 construct: The human YTHDF1 YTH domain (amino acids 365–554, PDB: 4RCJ); host or cells: E. coli BL21(DE3)
T4 sequence (Q9BYJ9 365-554): T1 sequence (Q9BYJ9 365-554)
Description: The Amplified Luminescent Proximity Homogeneous Assay (ALPHA Assay) was performed in white 384-well Optiplates (PerkinElmer) in a final volume of 20 μL, and it was first optimized by titrating both the protein and the biotinylated RNA probe (5′-Bi-CCGAm6ACUGUC-3′, Dharmacon) to find the appropriate right protein/RNA ratio before the saturation of the detection signal. […] Anti-His acceptor beads (PerkinElmer) (20 μg/mL final concentration) and streptavidin donor beads (20 μg/mL final concentration) were added and the reaction was incubated in the dark at room temperature for 1 h to reach equilibrium. Light signals were detected with an Enspire Multimode Plate reader (PerkinElmer). […] The IC50 of ebselen was determined from the nonlinear regression fits of the data.

YTHDF1 YTH domain [4] = molecular target: T3, YTHDF1 YTH domain; experiment: tryptophan fluorescence quenching; EC50; 5 uM protein; Fluorescence: 20 mM Hepes pH 7.5, 150 mM NaCl, 10% glycerol; REMSA: 20 mM Hepes pH 7.5, 50 mM KCl, BSA, 0.25% glycerol, gel at 4 C; AlphaScreen: 25 mM Hepes pH; details: protein: recombinant; tags: 6xHis (C-terminal as stated); single strand
YTHDF1 YTH domain [5] = molecular target: T3, YTHDF1 YTH domain; experiment: tryptophan fluorescence quenching; 5 uM protein; Fluorescence: 20 mM Hepes pH 7.5, 150 mM NaCl, 10% glycerol; REMSA: 20 mM Hepes pH 7.5, 50 mM KCl, BSA, 0.25% glycerol, gel at 4 C; AlphaScreen: 25 mM Hepes pH; details: protein: recombinant; tags: 6xHis (C-terminal as stated); single strand
[6] = Table 1, read-out: EC50 (μM) (Tryptophan quenching)
[7] = 5 μM protein, read-out: EC50 (tryptophan quenching)

## O=C1C(Cl)=C(Cl)C(=O)c2c(O)ccc(O)c21 [2,3-DICHLORO-5,8-DIHYDROXYNAPTHOQUINONE]
YTHDF1 domain
  Mean(FI.z-score): -3.853

## O=C1C(Cl)=C(Cl)C(=O)C(Cl)=C1Cl [CHLORANIL]
YTHDF1 domain
  Mean(FI.z-score): -4.349

## O=c1c2ccccc2[se]n1-c1ccc(F)cc1 [Compound 4, 2-(4-Fluorophenyl)benzo[d][1,2]selenazol-3(2H)-one]
YTHDF1 YTH domain [1]; [6]
  EC50: 1.89 ± 0.33 µM

## m6A RNA probe used in DMR
YTHDF1 YTH domain [2]
  K half: 63.8 nM

## O=C1c2ccccc2CN1c1ccccc1 [Compound 3, 2-phenylisoindolin-1-one]
[3]
  Disruption of the YTH/RNA interaction (AlphaScreen, in words): completely abolished; also recorded: failed
YTHDF1 YTH domain [1]
  Tryptophan fluorescence quenching / binding to the YTH domain (in words): completely abolished; also recorded: failed to generate a dose–response curve
YTHDF1 YTH domain [1]; [6]
  EC50: > 100 µM

## O=c1c2ccccc2sn1-c1ccccc1 [Compound 2, 2-Phenylbenzo[d]isothiazol-3(2H)-one]
[3]; 50 nM RNA, 50 nM protein, compound 0–100 μM
  IC50: 23140 ± 80 nM
[3]
  Disruption of the YTH/RNA interaction (AlphaScreen, in words): maintained both capacities
YTHDF1 YTH domain [1]
  Tryptophan fluorescence quenching / binding to the YTH domain (in words): maintained both capacities
YTHDF1 YTH domain [1]; [6]
  EC50: 1.76 ± 0.02 µM

## CCN(CC)CCn1sc2ccccc2c1=O [Compound 7, 2-(2-(Diethylamino)ethyl)benzo[d]isothiazol-3(2H)-one]
YTHDF1 YTH domain [1]; [6]
  EC50: 1.69 ± 0.26 µM

## Nc1ncnc2c1ncn2[C@@H]1O[C@H](CO)[C@@H](O)[C@H]1O [adenosine]
YTHDF1 YTH domain [1]
  Tryptophan fluorescence quenching / binding to the YTH domain (in words): not upon adenosine addition

## CNc1ncnc2c1ncn2[C@@H]1O[C@H](CO)[C@@H](O)[C@H]1O [m6A, N^6-methyladenosine]
YTHDF1 YTH domain [1]; [7]
  EC50: 596 µM

## 5-′CCGAm6ACUGUC-3′
YTHDF1 YTH domain [1]; [7]
  EC50: 0.14 µM and 0.139 µM

## O=c1c2ccccc2sn1-c1ccc(F)cc1 [Compound 5, 2-(4-Fluorophenyl)benzo[d]isothiazol-3(2H)-one]
YTHDF1 YTH domain [1]; [6]
  EC50: 1.63 ± 0.89 µM

## O=c1c2ccccc2sn1CCN1CCOCC1 [Compound 9, 2-(2-Morpholinoethyl)benzo[d]isothiazol-3(2H)-one]
YTHDF1 YTH domain [1]; [6]
  EC50: 2.83 ± 1.08 µM

## O=c1c2ccccc2[se]n1CCN1CCOCC1 [Compound 8, 2-(2-Morpholinoethyl)benzo[d][1,2]selenazol-3(2H)-one]
YTHDF1 YTH domain [1]; [6]
  EC50: 3.35 ± 2.2 µM

## CCN(CC)CCn1[se]c2ccccc2c1=O [Compound 6, 2-(2-(Diethylamino)ethyl)benzo[d][1,2]selenazol-3(2H)-one]
YTHDF1 YTH domain [1]; [6]
  EC50: 1.48 ± 0.26 µM

## O=C(NCCN1CCOCC1)c1ccccc1SSc1ccccc1C(=O)NCCN1CCOCC1 [Compound 10, 2,2′-Disulfanediylbis(N-(2-morpholinoethyl)benzamide)]
YTHDF1 YTH domain [1]; [6]
  EC50: 2.9 ± 1.8 µM

## CCGGACUGUC (ssRNA, m6A at position 5) [GGm6ACU ssRNA (m6A-RNA)]
YTHDF1 YTH domain [4]
  apparent K (half saturation): 1050 nM

## CCGAACUGUC (ssRNA, m6A at position 5) [GAm6ACU ssRNA]
YTHDF1 YTH domain [4]
  apparent K (half saturation): 140 nM

## CCGGACUGUC (ssRNA) [GGACU ssRNA unmethylated]
YTHDF1 YTH domain [5]
  binding result: no binding

## CCGAACUGUC (ssRNA) [GAACU ssRNA unmethylated]
YTHDF1 YTH domain [5]
  binding result: no binding
